Data as given in patent publication US20230218589A1, “COMPOUND FOR PREVENTION OR TREATMENT OF A SKIN CANCER OR SKIN PRECANCER” (UNIQUEST PTY LTD, priority 2020, published 2023).
Entries after “also recorded” stand apart in the source; their conditions may differ.

System: CD8+ T cells
Assay: Mouse T cell proliferation assay (Cell Trace Violet, 7AAD, flow cytometry)
Type: cell-based
Conditions: 3 days
Method: Spleens, inguinal and brachial lymph nodes were harvested from two C57BL/6 mice in sterile conditions and placed in sterile Phosphate Buffered Saline (PBS), then cells were dissociated into a single cell suspension by gently crushing all organs through a 70 μm cell strainer. Cells were washed through the strainer into a 50 mL falcon tube with 5 mL sterile ACK lysis buffer (0.15 M NH4Cl, 1 mM KHCO3 pH 7.3). Cells were incubated for 3 min at room temperature to lyse red blood cells. 5 mL sterile PBS was added to the cell suspension and cells were centrifuged at 350 g for 10 min at room temperature. Supernatant was removed and the cell pellet resuspended in 10 mL sterile PBS. Cells were centrifuged again at 350 g for 10 min at room temperature. The supernatant was removed and the cells were resuspended in 1 mL of sterile PBS.
1 μμL of 5 mM CellTrace Violet (Thermo Fisher) was added to the cell suspension and the mixture was swirled to ensure even dispersion of the dye. Cells were incubated for 20 min in the dark at room temperature. 5 mL of pre-warmed complete RPMI medium [(RPMI 1640 (Gibco), 10% heat inactivated FBS (Gibco), 1× Penicillin/Streptomycin/L-Glutamine, 100 μM 2-Mercaptoethanol] was added to the cell suspension and incubated in the dark at room temperature for 5 min. Cells were centrifuged at 350 g for 5 min at room temperature. Supernatant was removed without disrupting the cell pellet. Cells were resuspended in 1 mL complete RPMI medium.
Cells were counted using a haemocytometer and cells were adjusted to 2×10^6 cells/mL using complete RPMI medium. 500 μL of cell suspension was added to wells in a 48-well plate (Nunc) so the final number of cells per well was 1×10^6.
A vial of Dynabeads Mouse T Activator CD3/CD28 beads (4×10^7 beads/mL) was vortexed for 30 sec and 625 μL of beads was aliquoted into a 5 mL polypropylene FACS tube (Sarstedt). 1 mL of complete RPMI medium was added to the beads and mixed by pipetting. The FACS tube was placed in a StemCell Technologies EasySep magnet for 1 minute and supernatant was discarded. The tube was removed from the magnet and washed beads were resuspended in 625 μL of complete RPMI medium. 12.5 μL of bead suspension (5×10^5 beads) was added into appropriate wells of the 48-well plate with cell suspensions to induce T cell activation.
Cells were incubated in a humidified incubator at 37° C. with 5% CO2 for 1 hour before Compound 1 (or vehicle only) was diluted in complete RPMI medium and added to the appropriate wells at the concentration required. The final volume in all wells was 1 mL. Cells were incubated for 3 days in a humidified incubator at 37° C. with 5% CO2.
Cells were harvested from each well by resuspending cells with a pipette and transferring to polypropylene FACS tubes. […]

CC[C@@H]1/C=C(\C)[C@@H](O)[C@H](C)C[C@H](OC)[C@H]2O[C@@](O)(C(=O)C(=O)N3CCCC[C@H]3C(=O)O[C@H](/C(C)=C/[C@@H]3CC[C@@H](O)[C@H](OC)C3)[C@H](C)[C@@H](O)CC1=O)[C@H](C)C[C@@H]2OC [Compound 1, 17-Ethyl-1,14,20-trihydroxy-12-[2′-(4″-hydroxy-3″-methoxycyclohexyl)-1′-methylvinyl]-23,25-dimethoxy-13,19,21,27-tetramethyl-11,28-dioxa-4-azatricyclo-[22.3.1.0^4,9]octacos-18-ene-2,3,10,16-tetraone]
rescue of CD8+ T cell proliferation in the presence of tacrolimus (0.3 μM, 1 μM and 3 μM Compound 1 with 0.6 ng/mL tacrolimus): dose dependent rescue; also recorded: dose dependently and significantly rescued
effect on CD8+ T cell viability in the absence of tacrolimus (Compound 1 0.3-3 μM, no tacrolimus, 7AAD): no significant effect
effect on CD8+ T cell proliferation in the absence of tacrolimus (Compound 1 0.3-3 μM, no tacrolimus): no significant effect

C=CC[C@@H]1/C=C(\C)C[C@H](C)C[C@H](OC)[C@H]2O[C@@](O)(C(=O)C(=O)N3CCCC[C@H]3C(=O)O[C@H](/C(C)=C/[C@@H]3CC[C@@H](O)[C@H](OC)C3)[C@H](C)[C@@H](O)CC1=O)[C@H](C)C[C@@H]2OC [tacrolimus, reference compound]
CD8+ T cell proliferation compared to the vehicle control (0.6 ng/mL tacrolimus, CD3/CD28 beads): inhibited
